Results as given in patent publication US7018801B2, “Selection of peptides with antibody-like properties” (Board of Regents, The University of Texas System, priority 2000, dated 2006).
Peptide text beside a SMILES is read from it.

How the values were obtained:
[1] = molecular target: ICS (pro-IL-1β-derived epitope, 14 mer) (Homo sapiens, UniProt P01584, A117G); experiment: Measured KD of the LEPB-ICS complex; assay type: binding
Description: Finally, the most rigorous tests for peptide-peptide interaction involve spectroscopic assays. These experiments provide quantitative data regarding the affinity of the LEP for the epitope target. For example, fluorescence polarization (Heyduk et al., 1996) can be employed. In this experiment, one of the peptides is synthesized with a covalently coupled fluorescein molecule. A low concentration of this species (usually 10^−8 M to 10^−10 M) is titrated with increasing amounts of a fusion protein containing the partner peptide. The increase in the polarization of the fluorescence as a result of binding of the low molecular weight fluorescein-peptide conjugate to the high molecular weight fusion protein is monitored.
The affinities of the isolated peptides for their epitope targets can be determined by a number of methods. These include fusion of one or both of the interacting peptides to heterologous proteins, followed by the binding of one of the fusions to an affinity resin. The affinity of the partner fusion protein for this resin is then determined. Another common technique is surface plasmon resonance, in which one of the interacting peptides or fusion proteins is immobilized on an appropriately modified gold surface, and the on and off rates of the partner peptide are measured using the commercially available BIAcore instrument or an equivalent. […]

[2] = molecular target: T1, GST fusion protein containing the target epitope (Homo sapiens, UniProt P01584, A117G); experiment: Far Western blot of DBD-LEP fusions probed with GST-epitope fusion protein; assay type: binding; details: extract of phage-resistant cells expressing DBD-LEP fusion; anti-GST antibody detection
T1 construct: made in house
Procedure: FIG. 5—“Far Western” blot protocol to eliminate false positives. An extract is prepared from phage-resistant cells that express the DBD-LEP fusion. This is electrophoresed through a denaturing gel, then blotted onto a membrane. This is probed with a GST fusion protein containing the target epitope, followed by labeled anti-GST antibody to visualize the site(s) of binding of the GST-peptide fusion protein.
The putative epitope-binding LEPs that survive the tests described above are then tested biochemically for epitope binding. […] This is done by expressing a GST fusion protein containing the target peptide at the C-terminus. This protein is then employed as a probe in a Far-Western blot experiment (FIG. 5). Crude extracts from cells that express the Repressor DBD-LEP fusion are electrophoresed through a denaturing gel and blotted onto a suitable surface, such a nitrocellulose. The blot is then probed with the GST-epitope fusion protein, followed by anti-GST antibody and finally an HRP-conjugated secondary to visualize the binding events. Lanes in which the band corresponding to the Repressor DBD-LEP is bound by the GST-epitope fusion protein are considered true hits.

| Molecule | Kd [1] [nM] | Far Western blot signal [2] |
| --- | --- | --- |
| CC(C)C[C@H](NC(=O)[C@H](CCC(=O)O)NC(=O)[C@H](C)NC(=O)[C@H](CCC(=O)O)NC(=O)[C@H](CCCCN)NC(=O)[C@H](CCCNC(=N)N)NC(=O)[C@H](C)NC(=O)[C@@H](N)CCCCN)C(=O)N[C@@H](C)C(=O)N[C@@H](C)C(=O)N[C@@H](C)C(=O)N[C@H](C(=O)N[C@@H](C)C(=O)N[C@@H](CCC(=O)O)C(=O)N[C@@H](CCC(N)=O)C(=O)O)[C@@H](C)O [LEPB] (H-KARKEAELAAATAEQ-OH) | 2000 | – |
| PCHLNCSLQTLSPTRTTPRKHCKHCFKTLSEKMKWN [LEPD] | – | weak or unobservable signals |
